Assays:
A2780 cells [1] = tested on: A2780 cells; design: method as in PMID 30035345; conditions: relative to 4-(N-ferrocenyl-N-benzylaminocarbonyloxymethyl)-phenylboronic acid pinacol ester; cited from earlier work
[2] = tested on: mononuclear cells (MNCs) from healthy donors; assay: Viability of primary mononuclear cells (CellTiter Glo); format: cell-based, human; conditions: primary MNC from six healthy donors, 48 h
Method: Afterwards, the cells were washed with DPBS and a fresh portion of RPMI 1640 medium containing 5% FBS, 1% L-glutamine and 1% penicillin/streptomycin (1 mL) was added.
(§1) The fluorescence images were taken with a Zeiss Axio Vert.A1 fluorescence microscope […]
For SBLF9 the same procedure was applied except that Ham's F-12K (Kaighn's)-Medium supplemented with 15 % FBS, 2 % non-essential amino acid mix, and 1 % penicillin/streptomycin was used for cell seeding and incubation with the prodrug or the carrier. A cell density of 40 cells/µL was used.
(§2) Determination of viability of primary cancer (CLL) and normal (MNC) cells in the […]
(§3) Clinical samples from chronic lymphocytic leukemia (CLL) patients (N=6, CLL cells) and healthy donors (N=6; peripheral blood mononuclear cells, MNCs) were collected at the University Hospital Heidelberg, Germany. Informed consent was obtained in accordance with the Declaration of Helsinki. Sample collection and analysis was approved by the ethics committee of the University of Heidelberg (S-254/2016). Blood was separated by a Ficoll gradient (GE Healthcarey), and cells were cryopreserved. […]
(§4) 4x10^4 cells per well. […] Cell viability was assessed by quantification of ATP (CellTiter Glo®, Promega) 48 hours after drug application.
(§5) Luminescence was measured on a Tecan Infinite F200 Microplate Reader. Viability was calculated as % of solvent (DMSO) treated control. […]

[3] = Solubility in RPMI 1640 medium, precipitation seen by bright field optical microscopy; conditions: DMSO 1%
Method: The latter medium was selected, since we used it for the cellular assays. […] Then we monitored the formation of (not detectable in the previous experiment) aggregated species in prodrug solutions that appeared transparent (concentrations < 50 µM) by using dynamic light scattering. […]
Solubility of drugs in aqueous buffers
Observing prodrug precipitation by using bright field optical microscopy […]
glutamine (1 %), and penicillin/streptomycin (1 %) was filled into 96-well microtiter plates (100 µL for each well) and compounds in DMSO stock solution (1 µL) were added. Each well was monitored by using bright field optical microscopy both immediately after […]

A2780 cells [4] = assay: Generation of nitric oxide (DAF-FM diacetate), A2780; format: cell-based, human; conditions: 2 h
Method: with CO2 (5%) at 37 °C for 2 h. Next, the cells were detached from the culture dish using trypsin/EDTA (0.025%/0.01%, v/v, 200 µL). The cells were re-suspended in RPMI 1640 medium containing 5% FBS, 1% L-glutamine and 1% penicillin/streptomycin (200 µL).
Finally, the fluorescence of live cells (λex = 488 nm, λem = 530 nm) in the suspensions was determined by using flow cytometry (Figure 4C).
Figure S61. Representative flow cytometric histograms used for setting up Figure 4C.
Generation of nitric oxide in A2780 cells
A2780 cells were seeded into 96 well culture plates at the same cell concentration and in the same medium as applied for the assay for monitoring mROS described above. On the day of the experiment, the cells were washed twice with DPBS buffer and the medium was replaced with HBSS (100 μL). […]
(§6) The cells were re-suspended in RPMI 1640 medium containing 5% FBS, 1% L-glutamine and 1% penicillin/streptomycin (100 µL). Finally, the fluorescence of live cells (λex = 488 nm, λem = 530 nm) in the suspensions was determined by using flow cytometry (Figure […]
Figure S62. Fluorescence of DAF-FM diacetate-loaded A2780 cells treated either with 2c or the carrier. *: p<0.05, Student’s t test. […]

SBLF9 fibroblasts = assay: Mitochondrial ROS imaging (MitoSOX), SBLF9 fibroblasts; format: cell-based; conditions: 5 µM
Method: as §6
Figure S62. Fluorescence of DAF-FM diacetate-loaded A2780 cells treated either with 2c or the carrier. *: p<0.05, Student’s t test.
Effect of prodrug 2c on mitochondrial reactive oxygen species in representative cancer (A2780) and normal cells (SBLF9 fibroblasts) (Figure 6)
A2780 cells were seeded in of RPMI 1640 medium (500 µL) supplemented with 5% FBS, 1% L-glutamine, and 1% penicillin/streptomycin on a 35 mm imaging dish (µ- Dish 35 mm, high, ibidi GmbH, Germany) at a cell density of 80 cells/µL and allowed to attach to the surface of the dish for overnight. […]
as §1, §4, §5

[5] = tested on: chronic lymphocytic leukemia (CLL) cells; assay: Viability of primary CLL cells (CellTiter Glo); format: cell-based, human; conditions: 48 h
Source text: as §2
as §3, with “cryopreserved. Drug sensitivity screening was performed in 384-well format (Greiner Bio One) with 10 different prodrug” for “cryopreserved.”
4x10^4 cells per well. Cells were cultured in RPMI-1640 (Invitrogen) supplemented with penicillin/streptomycin (Invitrogen), L-glutamine (Invitrogen) and 10% pooled and heat inactivated AB-type human serum (Sigma-Aldrich). Cell viability was assessed by quantification of ATP (CellTiter Glo®, Promega) 48 hours after drug application.
Luminescence was measured on a Tecan Infinite F200 Microplate Reader. Viability was calculated as % of solvent (DMSO) treated control. Representative plots of cell viability

| SMILES | efficacy of cellular uptake relative to reference NAAF prodrug (A2780 cells [1]) | IC50 [2] [µM] | Solubility ([3]; 48 h incubation in RPMI 1640, FBS 5%, first signs of precipitation) [µM] | first signs of precipitation ([3]; immediately after dilution in RPMI 1640, FBS 5%) [µM] | level of NO vs carrier (A2780 cells [4]) | mROS level in normal cells (SBLF9 fibroblasts) | IC50 ([5]; primary CLL cells from six patients) [µM] | cancer cell specificity, primary CLL cells vs MNCs ([5]; viability of CLL vs MNC, for 2c at 3.3 and 10 µM) |
| --- | --- | --- | --- | --- | --- | --- | --- | --- |
| CCOC(=O)CCCCCn1cc(CN(C(=O)OCc2ccc(B3OC(C)(C)C(C)(C)O3)cc2)[c-]2cccc2)nn1.[Fe+2].c1cc[cH-]c1 [compound 1] | ca. 50% | – | – | – | – | – | – | – |
| CC1(C)OB(c2ccc(COC(=O)N(Cc3cn(Cc4ccc(Cn5cc(Cc6ccccc6)nn5)cc4)nn3)[c-]3cccc3)cc2)OC1(C)C.[Fe+2].c1cc[cH-]c1 [2c] | – | 12 ± 3 | 30 | 30 | higher than that in A2780 cells treated with DMSO (carrier) only | only a slight increase of mROS level | 6 ± 2 | significantly more toxic in the cancer cells than in the normal cells |

— publication PMC8750417, “Intracellular Amplifiers of Reactive Oxygen Species Affecting Mitochondria as Radiosensitizers” (Cancers, 2021)
